In patent US9732103B2 (priority 2014, dated 2017):
Where two headings read alike, the source gives them in different places.

Biological target: Human factor D (Homo sapiens (Human), UniProt P00746)
Type: biochemical

Human factor D, sequence (P00746 26-253 limits assumed): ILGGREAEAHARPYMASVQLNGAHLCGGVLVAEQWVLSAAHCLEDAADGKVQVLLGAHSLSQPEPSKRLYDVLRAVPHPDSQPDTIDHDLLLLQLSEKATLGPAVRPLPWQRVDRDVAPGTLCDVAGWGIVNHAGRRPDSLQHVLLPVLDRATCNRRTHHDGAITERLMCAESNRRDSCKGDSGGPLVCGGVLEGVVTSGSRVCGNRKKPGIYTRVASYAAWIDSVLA

Row | SMILES | IC50 [nM] | IC50 (factor D 80 nM, substrate Z-L-Lys-SBzl 100 μM, DTNB, pH 7.5) [nM]
1 | CC(=O)c1cn(CC(=O)Oc2ccc3c(c2)c(C(C)=O)cn3CC(=O)N2C[C@H](F)C[C@H]2C(=O)NCc2cccc(Cl)c2F)c2ccc(O)cc12 [Compound 1, 3-acetyl-1-(2-((2S,4R)-2-(3-chloro-2-fluorobcnzylcarbamoyl)-4-fluoropyrrolidin-1-yl)-2-oxoethyl)-1H-indol-5-yl 2-(3-acctyl-5-hydroxy-1H-indol-1-yl)acctate] | < 1000 | –
2 | CC(=O)c1cn(CC(=O)N2C[C@H](F)C[C@H]2C(=O)NCc2cccc(Cl)c2F)c2ccc(OC(=O)NCc3cscn3)cc12 [Compound 2, 3-acctyl-1-(2-((2S,4R)-2-(3-chloro-2-fluorobenzylcarbamoyl)-4-fluoropyrrolidin-1-yl)-2-oxoethyl)-1H-indol-5-yl thiazol-4-ylmethylcarbamate] | < 1000 | –
3 | CC(=O)c1cn(CC(=O)N2C[C@H](F)C[C@H]2C(=O)NCc2cccc(Cl)c2F)c2cc(OC(=O)NCc3cscn3)ccc12 [Compound 3, 3-acctyl-1-(2-((2S,4R)-2-(3-chloro-2-fluorobenzylcarbamoyl)-4-fluoropyrrolidin-1-yl)-2-oxoethyl)-1H-indol-6-yl thiazol-4-ylmethylcarbamate] | < 1000 | –
4 | CC(=O)c1cn(CC(=O)N2C[C@H](F)C[C@H]2C(=O)NCc2cccc(Cl)c2F)c2cc(OC(=O)NCc3nn[nH]n3)ccc12 [Compound 4, 3-acetyl-1-(2-((2S,4R)-2-(3-chloro-2-fluorobenzylcarbamoyl)-4-fluoropyrrolidin-1-yl)-2-oxoethyl)-1H-indol-6-yl (2H-tetrazol-5-yl)methylcarbamate] | < 1000 | –
5 | CC(=O)c1cn(CC(=O)N2C[C@H](F)C[C@H]2C(=O)NCc2cccc(Cl)c2F)c2cc(OC(=O)NCCc3nn[nH]n3)ccc12 [Compound 5, 3-acctyl-1-(2-((2S,4R)-2-(3-chloro-2-fluorobenzylcarbamoyl)-4-fluoropyrrolidin-1-yl)-2-oxoethyl)-1H-indol-6-yl 2-(2H-tetrazol-5-yl)ethylcarbamate] | < 1000 | –
6 | CC(=O)c1cn(CC(=O)N2C[C@H](F)C[C@H]2C(=O)NCc2cccc(Cl)c2F)c2cc(OC(=O)NCCP(=O)(O)O)ccc12 [Compound 6, 2-((3-acctyl-1-(2-((2S,4R)-2-(3-chloro-2-fluorobenzylcarbamoyl)-4-fluoropyrrolidin-1-yl)-2-oxoethyl)-1H-indol-6-yloxy)carbonylamino) ethylphosphonic acid] | < 1000 | –
7 | CC(=O)c1cn(CC(=O)N2C[C@H](F)C[C@H]2C(=O)NCc2cccc(Cl)c2F)c2cc(OC(=O)NCc3ccc(B(O)O)cc3)ccc12 [Compound 7, 4-(((3-acetyl-1-(2-((2S,4R)-2-(3-chloro-2-fluorobenzylcarbamoyl)-4-fluoropyrrolidin-1-yl)-2-oxoethyl)-1H-indol-6-yloxy)carbonylamino)methyl)phenylboronic acid] | < 1000 | –
8 | CC(=O)c1cn(CC(=O)N2C[C@H](F)C[C@H]2C(=O)NCc2cccc(Cl)c2F)c2ccc(OC(=O)NC3CC3)cc12 [Compound 8, 3-acetyl-1-(2-((2S,4R)-2-(3-chloro-2-fluorobenzylcarbamoyl)-4-fluoropyrrolidin-1-yl)-2-oxoethyl)-1H-indol-5-yl cyclopropylcarbamate] | < 1000 | –
9 | CC(=O)c1cn(CC(=O)N2C[C@H](F)C[C@H]2C(=O)NCc2cccc(Cl)c2F)c2ccc(OC(=O)NCc3cocn3)cc12 [Compound 9, 3-acctyl-1-(2-((2S,4R)-2-(3-chloro-2-fluorobenzylcarbamoyl)-4-fluoropyrrolidin-1-yl)-2-oxoethyl)-1H-indol-5-yl oxazol-4-ylmethylcarbamate] | < 1000 | –
10 | CC(=O)c1cn(CC(=O)N2C[C@H](F)C[C@H]2C(=O)NCc2cccc(Cl)c2F)c2ccc(OC(=O)NCc3nnn[nH]3)cc12 [Compound 10, 3-acetyl-1-(2-((2S,4R)-2-(3-chloro-2-fluorobenzylcarbamoyl)-4-fluoropyrrolidin-1-yl)-2-oxoethyl)-1H-indol-5-yl (1H-tetrazol-5-yl)methylcarbamate] | < 1000 | –
11 | CC(=O)c1cn(CC(=O)N2C[C@H](F)C[C@H]2C(=O)NCc2cccc(Cl)c2F)c2cc(C(=O)C[S+](C)[O-])ccc12 (stereo partly drawn) [Compound 11, (2S,4R)-1-(2-(3-acetyl-6-(2-(methylsulfinyl)acetyl)-1H-indol-1-yl)acetyl)-N-(3-chloro-2-fluorobenzyl)-4-fluoropyrrolidine-2-carboxamide] | < 1000 | –
12 | CC(=O)c1cn(CC(=O)N2C[C@H](F)C[C@H]2C(=O)NCc2cccc(Cl)c2F)c2ccc(OC(=O)N3CCOCC3)cc12 [Compound 12, 3-acetyl-1-(2-((2S,4R)-2-(3-chloro-2-fluorobenzylcarbamoyl)-4-fluoropyrrolidin-1-yl)-2-oxoethyl)-1H-indol-5-yl morpholine-4-carboxylate] | < 1000 | –
13 | CC(=O)c1cn(CC(=O)N2C[C@H](F)C[C@H]2C(=O)NCc2cccc(Cl)c2F)c2ccc(OC(=O)NCc3ncccn3)cc12 [Compound 13, 3-acctyl-1-(2-((2S,4R)-2-(3-chloro-2-fluorobenzylcarbamoyl)-4-fluoropyrrolidin-1-yl)-2-oxoethyl)-1H-indol-5-yl pyrimidin-2-ylmethylcarbamate] | < 1000 | –
14 | CC(=O)c1cn(CC(=O)N2C[C@H](F)C[C@H]2C(=O)NCc2cccc(Cl)c2F)c2ccc(OC(=O)NCCc3nn[nH]n3)cc12 [Compound 14, 3-acctyl-1-(2-((2S,4R)-2-(3-chloro-2-fluorobenzylcarbamoyl)-4-fluoropyrrolidin-1-yl)-2-oxoethyl)-1H-indol-5-yl 2-(2H-tetrazol-5-yl)ethylcarbamate] | < 1000 | –
15 | CC(=O)c1cn(CC(=O)N2C[C@H](F)C[C@H]2C(=O)NCc2cccc(Cl)c2F)c2ccc(OC(=O)NCCc3c[nH]cn3)cc12 [Compound 15, 3-acctyl-1-(2-((2S,4R)-2-(3-chloro-2-fluorobenzylcarbamoyl)-4-fluoropyrrolidin-1-yl)-2-oxoethyl)-1H-indol-5-yl 2-(1H-imidazol-4-yl)ethylcarbamate] | < 1000 | –
16 | CC(=O)c1cn(CC(=O)N2C[C@H](F)C[C@H]2C(=O)NCc2cccc(Cl)c2F)c2ccc(OC(=O)N3CCNCC3)cc12 [Compound 16, 3-acetyl-1-(2-((2S,4R)-2-(3-chloro-2-fluorobenzylcarbamoyl)-4-fluoropyrrolidin-1-yl)-2-oxoethyl)-1H-indol-5-yl piperazine-1-carboxylate] | – | < 1000
